# Measurements from patent US12162881B2, “Forms and compositions of inhibitors of JAK2” (Ajax Therapeutics, Inc., priority 2021, dated 2024).
# Assays:
# [1] = Drying experiments of solvated Compound 1 materials (vacuum oven, XRPD); format: physicochemical; details: vac., 1 d
# Experimental: Drying experiments: Damp and solvated Compound 1 materials were placed in vacuum ovens set to ambient temperature or 80° C. for 1 day. Dried solids were analyzed by XRPD.
# [2] = biological target: T1, JAK2 (JH1domain-catalytic, Y1007F,Y1008F) kinase (Homo sapiens, UniProt O60674, Y1007F/Y1008F); experiment: JAK2 Binding Assay; details: Compound 1 as prepared by Example 1
# T1 construct: JAK2 (JH1domain-catalytic, Y1007F,Y1008F) kinase was expressed as N-terminal fusion; made in house; host or cells: transiently transfected HEK293 cells
# Experimental: JAK2 (JH1domain-catalytic, Y1007F,Y1008F) kinase was expressed as N-terminal fusion to the DNA binding domain of NFkB in transiently transfected HEK293 cells and subsequently tagged with DNA for qPCR detection. Streptavidin-coated magnetic beads were treated with biotinylated small molecule ligands for 30 minutes at room temperature to generate affinity resins for kinase assays. The liganded beads were blocked with excess biotin and washed with blocking buffer (SeaBlock (Pierce), 1% BSA, 0.05% Tween 20, 1 mmol/L DTT) to remove unbound ligand and to reduce nonspecific phage binding. Binding reactions were assembled by combining kinases, liganded affinity beads, and test compounds in 1× binding buffer (1×PBS, 0.05% Tween 20, 0.1% BSA, 1 mmol/L DTT). Test compound was prepared as 111× stocks in 100% DMSO and directly diluted into the assay wells. All reactions were performed in polypropylene 384-well plates in a final volume of 0.02 mL. The assay plates were incubated at room temperature with shaking for 1 hour and the affinity beads were washed with wash buffer (1×PBS, 0.05% Tween 20). The beads were then re-suspended in elution buffer (1×PBS, 0.05% Tween 20, 0.5 μmol/L non-biotinylated affinity ligand) and incubated at room temperature with shaking for 30 minutes. The kinase concentration in the eluate was measured by qPCR.
# [3] = Relative humidity jar experiments (XRPD); format: physicochemical
# Experimental: Relative humidify jar experiments: Solid Compound 1 was placed in relative humidity jars containing saturated solutions of various salts to maintain a desired relative humidity level at 25° C. One sample of Compound 1 was placed in a jar containing P205 in an effort to maintain 0% RH.
# [4] = Variable relative humidity XRPD (VRH-XRPD); format: physicochemical
# Experimental: XRPD patterns were collected with a PANalytical X'Pert PRO MPD diffractometer using an incident beam of Cu Kα radiation produced using a long, fine-focus source and a nickel filter. The diffractometer was configured using the symmetric Bragg-Brentano geometry. Data were collected and analyzed using Data Collector software v. 5.5. Prior to the analysis, a silicon specimen (NIST SRM 640f) was analyzed to verify the observed position of the Si 111 peak is consistent with the NIST-certified position. A specimen of the sample was packed in a nickel-coated copper well. Antiscatter slits (SS) were used to minimize the background generated by air. Soller slits for the incident and diffracted beams were used to minimize broadening from axial divergence. Diffraction patterns were collected using a scanning position-sensitive detector (X'Celerator) located 240 mm from the sample and Data Collector software v. 5.5.
# An Anton Paar temperature-humidity chamber (THC) was used while collecting in-situ XRPD patterns as a function of humidity. The temperature of the specimen was changed with a Peltier thermoelectric device located directly under the specimen holder and monitored with a platinum-100 resistance sensor located in the specimen holder. The thermoelectric device was powered and controlled by an Anton Paar TCU 50 interfaced with Data Collector. The humidity was generated with an RH-200 manufactured by VTI Inc. and carried by a flow of nitrogen gas. The humidity was monitored by a HygroClip sensor manufactured by Rotronic located next to the specimen inside the THC.
# VRH-XRPD analysis was conducted to help determine water activity boundary for the solid-state conversion between hydrated Form A and anhydrous Form B. This method was utilized due the observed high tendency of Compound 1 to form solvates, which precluded the use of solvent-mediated approach.
# Overall, two VRH-XRPD experiments were conducted to qualitatively evaluate RH conditions leading to predominance of Form A over Form B and vice versa. The kinetic component was not assessed.
# The first VRH-XRPD experiment was conducted with a goal of observing dehydration of hydrated Form A. An initial XRPD scan was, therefore, acquired on Form A equilibrated in-situ at ambient RH for 45 minutes, which at the time of the analysis was ˜30%. The XRPD pattern from this scan was consistent with Form A (FIG. 39, top).
# XRPD patterns were collected throughout the course of the experiment, each with a 10 minute scan.
# XRPD patterns were collected throughout the course of the experiment, each with a 10 minute scan. The XRPD patterns remained Form B until the RH reached approximately 60% RH, where Form A became the primary phase with some Form B remaining (FIG. 41, top two spectra). Further decrease of Form B was observed through the remainder of the 60% RH hold at which point the experiment ended (FIG. 41, bottom two spectra). Complete conversion to Form A from Form B was not observed under these conditions.
# [5] = Disproportionation of Compound 2 (HCl salt) stirred in water; format: physicochemical; details: Form A obtained by disproportionation of Compound 2 in water (Example 11)
# Experimental: An exemplary procedure for preparing Compound 1 Form A is as follows: Compound 1 Lot II (459.1 mg) was slurried in THF (4 mL). Concentrated HCl (154 μL, 2 equiv.) was added to the slurry. The off-white slurry rapidly changed to a yellow slurry. The slurry was stirred at ambient temperature for 1 day. Solids were collected by vacuum filtration and briefly dried under vacuum. The yellow material, assumed to be an HCl salt, was collected by vacuum filtration. The material (543.2 mg) was then suspended in H2O (5 mL) and stirred at ambient temperature for 2 days. Pale yellow solids were collected by vacuum filtration but appeared to still contain some HCl salt by XRPD. Solids were re-slurried in H2O (1 mL) at ambient temperature for additional 3 days. The off-white solids were collected by vacuum filtration and dried on filter until solids were no longer visibly damp.
# T1 sequence (O60674 849-1124 Y1007F/Y1008F limits assumed): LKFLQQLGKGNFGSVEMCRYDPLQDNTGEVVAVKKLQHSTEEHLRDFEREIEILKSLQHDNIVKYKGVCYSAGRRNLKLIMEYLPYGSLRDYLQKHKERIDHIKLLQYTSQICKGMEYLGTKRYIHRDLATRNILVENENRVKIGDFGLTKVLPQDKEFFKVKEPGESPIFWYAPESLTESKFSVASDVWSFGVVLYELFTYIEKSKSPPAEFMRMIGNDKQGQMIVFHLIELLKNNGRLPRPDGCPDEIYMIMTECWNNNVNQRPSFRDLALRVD
compound,measurement,setting,value
"CC(=O)Nc1cc(Oc2cnc3nc(Nc4cc(C(F)(F)F)cn(C)c4=O)n(C)c3c2C#N)ccn1 [Compound 1 Form D, N-(4-((7-cyano-1-methyl-2-((1-methyl-2-oxo-5-(trifluoromethyl)-1,2-dihydropyridin-3-yl)amino)-1H-imidazo[4,5-b]pyridin-6-yl)oxy)pyridin-2-yl)acetamide]",XRPD Result after drying,[1]; 80° C.,Form D + peaks (some disorder)
same,XRPD Result after drying,"[1]; RT, listed as Form D",Form D^a
"CC(=O)Nc1cc(Oc2cnc3nc(Nc4cc(C(F)(F)F)cn(C)c4=O)n(C)c3c2C#N)ccn1 [Compound 1, N-(4-((7-cyano-1-methyl-2-((1-methyl-2-oxo-5-(trifluoromethyl)-1,2-dihydropyridin-3-yl)amino)-1H-imidazo[4,5-b]pyridin-6-yl)oxy)pyridin-2-yl)acetamide]",Kd,[2],< 10 nM
same,XRPD Results after RH stress,"[3]; 23% RH, RT, 6 d",B + minor A
same,XRPD Results after RH stress,"[3]; 43% RH, RT, 6 d",A + B
same,XRPD Results after RH stress,"[3]; 54% RH, RT, 6 d",A + B
same,XRPD Results after RH stress,"[3]; P2O5 jar, 0% RH RT, 12 d",B + peaks
"CC(=O)Nc1cc(Oc2cnc3nc(Nc4cc(C(F)(F)F)cn(C)c4=O)n(C)c3c2C#N)ccn1 [Compound 1 Form A, N-(4-((7-cyano-1-methyl-2-((1-methyl-2-oxo-5-(trifluoromethyl)-1,2-dihydropyridin-3-yl)amino)-1H-imidazo[4,5-b]pyridin-6-yl)oxy)pyridin-2-yl)acetamide]",RH at which a small amount of Form B became visible,"[4]; Experiment 1, RH incrementally decreased from ~85%",approximately 21 % RH
same,RH at which Form A was no longer visible,"[4]; Experiment 1, decreasing RH",~5 % RH
same,RH at which Form B became the predominant phase,"[4]; Experiment 1, decreasing RH",11 % RH
same,RH at which dehydration is expected to begin,[4]; VRH-XRPD and DVS data combined,20 % RH
same,Form change on hold under nitrogen stream,[4]; overnight (17 h) hold under nitrogen stream (~0% RH),converted to Form B
same,Stability relative to Compound 2,[5],superior stability
